Source: ChEMBL document CHEMBL3734692, “Design and synthesis of 2-oxindole based multi-targeted inhibitors of PDK1/Akt signaling pathway for the treatment of glioblastoma multiforme” (Eur J Med Chem, 2015)
Active and inactive are the calls of the source. No cut-off for these calls is given here.

Tests used:
U-118-MG = experiment: Antiproliferative activity against human U118MG cells assessed as inhibition of cell growth after 72 to 144 hrs by WST1 assay; format: functional, cell-based
[1] = biological target: Glycogen synthase kinase-3 alpha (Homo sapiens, UniProt P49840); experiment: Inhibition of GSK3alpha (unknown origin) in presence of 10 uM ATP incubated for 1 hr by Z'Lyte assay
Sequence of Glycogen synthase kinase-3 alpha (P49840 whole entry): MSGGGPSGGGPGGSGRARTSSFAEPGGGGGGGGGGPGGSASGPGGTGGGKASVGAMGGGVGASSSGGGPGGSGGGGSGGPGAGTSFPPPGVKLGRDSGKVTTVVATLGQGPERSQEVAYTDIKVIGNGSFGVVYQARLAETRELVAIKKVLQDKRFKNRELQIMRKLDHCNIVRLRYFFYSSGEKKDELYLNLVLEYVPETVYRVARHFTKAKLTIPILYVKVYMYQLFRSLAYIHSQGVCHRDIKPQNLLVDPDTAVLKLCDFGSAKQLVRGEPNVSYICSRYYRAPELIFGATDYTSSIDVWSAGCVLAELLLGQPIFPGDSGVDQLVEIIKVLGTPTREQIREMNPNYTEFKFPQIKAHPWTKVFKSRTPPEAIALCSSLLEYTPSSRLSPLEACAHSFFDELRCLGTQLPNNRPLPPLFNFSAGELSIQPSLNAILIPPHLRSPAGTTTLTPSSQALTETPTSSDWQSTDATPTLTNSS

[2] = biological target: Interleukin-1 receptor-associated kinase 4 (Homo sapiens) (UniProt Q9NWZ3); experiment: Inhibition of IRAK4 (unknown origin) at 1 uM by selectscreen kinase profiling assay in presence of ATP
Sequence of Interleukin-1 receptor-associated kinase 4 (Homo sapiens) (Q9NWZ3 whole entry): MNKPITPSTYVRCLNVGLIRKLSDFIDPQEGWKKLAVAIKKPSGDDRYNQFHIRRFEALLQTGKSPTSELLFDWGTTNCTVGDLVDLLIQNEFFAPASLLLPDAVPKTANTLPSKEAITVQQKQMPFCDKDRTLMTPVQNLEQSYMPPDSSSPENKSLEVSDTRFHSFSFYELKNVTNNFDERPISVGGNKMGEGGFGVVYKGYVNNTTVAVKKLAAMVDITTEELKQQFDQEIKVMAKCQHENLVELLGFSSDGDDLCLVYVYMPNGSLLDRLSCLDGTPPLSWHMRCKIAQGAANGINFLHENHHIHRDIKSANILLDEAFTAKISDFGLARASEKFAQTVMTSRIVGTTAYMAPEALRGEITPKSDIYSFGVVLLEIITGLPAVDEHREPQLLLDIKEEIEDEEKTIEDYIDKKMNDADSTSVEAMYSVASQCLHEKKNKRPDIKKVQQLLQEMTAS

[3] = biological target: Calcium/calmodulin-dependent protein kinase type II subunit alpha (Homo sapiens) (UniProt Q9UQM7); experiment: Inhibition of CAMK2alpha (unknown origin) at 1 uM by selectscreen kinase profiling assay in presence of ATP
ANGM-CSS [4] = experiment: Induction of human GSC differentiation derived from ANGM-CSS cells assessed as up regulation of GFAP mRNA expression at 1 uM after 7 days by RT-PCR analysis; format: functional, cell-based
[5] = biological target: T1, Glycogen synthase kinase-3 beta (Homo sapiens, UniProt P49841); experiment: Inhibition of GSK3beta (unknown origin) at 1 uM by selectscreen kinase profiling assay in presence of ATP
Target sequence in this assay (P49841 whole entry, looked up): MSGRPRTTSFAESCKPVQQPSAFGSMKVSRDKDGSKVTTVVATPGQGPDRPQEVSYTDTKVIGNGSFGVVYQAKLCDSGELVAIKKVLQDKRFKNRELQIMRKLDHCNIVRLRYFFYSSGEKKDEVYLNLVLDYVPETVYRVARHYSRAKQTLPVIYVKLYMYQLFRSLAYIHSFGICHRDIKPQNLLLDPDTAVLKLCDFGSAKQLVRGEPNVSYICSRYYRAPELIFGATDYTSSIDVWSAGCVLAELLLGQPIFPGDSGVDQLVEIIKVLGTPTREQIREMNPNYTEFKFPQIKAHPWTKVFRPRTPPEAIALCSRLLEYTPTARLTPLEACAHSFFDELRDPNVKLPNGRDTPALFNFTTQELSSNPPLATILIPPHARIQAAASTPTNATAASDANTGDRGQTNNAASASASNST

[6] = Cell cycle arrest in human GSC derived from ANGM-CSS cells assessed as accumulation at S phase at 1 uM after 7 days by based fluorescent reagent based cell analysis (reference value: 1.9%); format: functional
[7] = Induction of apoptosis in human ANGM-CSS cells assessed as dead cells at 1 uM after 7 days by annexin V-FITC/7-AAD dual staining based cell analysis (reference value: 2.28%); format: functional
[8] = Induction of apoptosis in human ANGM-CSS cells assessed as late apoptotic cells at 1 uM after 7 days by annexin V-FITC/7-AAD dual staining based cell analysis (reference value: 3.39%); format: functional
[9] = biological target: Mitogen-activated protein kinase 9 (Homo sapiens) (UniProt P45984); experiment: Inhibition of JNK2 (unknown origin) at 1 uM by selectscreen kinase profiling assay in presence of ATP
[10] = biological target: Casein kinase I isoform gamma-1 (Homo sapiens) (UniProt Q9HCP0); experiment: Inhibition of CK1gamma1 (unknown origin) at 1 uM by selectscreen kinase profiling assay in presence of ATP
[11] = Induction of apoptosis in human ANGM-CSS cells assessed as live cells at 1 uM after 7 days by annexin V-FITC/7-AAD dual staining based cell analysis (reference value: 92.21%); format: functional
[12] = biological target: Protein kinase C alpha type (Homo sapiens) (UniProt P17252); experiment: Inhibition of PKCalpha (unknown origin) at 1 uM by selectscreen kinase profiling assay in presence of ATP
[13] = Antiproliferative activity against human ANGM-CSS cells assessed as inhibition of cell growth after 120 hrs by WST1 assay; format: functional
[14] = biological target: cAMP-dependent protein kinase catalytic subunit alpha (Homo sapiens) (UniProt P17612); experiment: Inhibition of PRKACA (unknown origin) at 1 uM by selectscreen kinase profiling assay in presence of ATP
[15] = biological target: Inhibitor of nuclear factor kappa-B kinase subunit beta (Homo sapiens) (UniProt O14920); experiment: Inhibition of IKKbeta (unknown origin) at 1 uM by selectscreen kinase profiling assay in presence of ATP
Sequence of Inhibitor of nuclear factor kappa-B kinase subunit beta (Homo sapiens) (O14920 whole entry): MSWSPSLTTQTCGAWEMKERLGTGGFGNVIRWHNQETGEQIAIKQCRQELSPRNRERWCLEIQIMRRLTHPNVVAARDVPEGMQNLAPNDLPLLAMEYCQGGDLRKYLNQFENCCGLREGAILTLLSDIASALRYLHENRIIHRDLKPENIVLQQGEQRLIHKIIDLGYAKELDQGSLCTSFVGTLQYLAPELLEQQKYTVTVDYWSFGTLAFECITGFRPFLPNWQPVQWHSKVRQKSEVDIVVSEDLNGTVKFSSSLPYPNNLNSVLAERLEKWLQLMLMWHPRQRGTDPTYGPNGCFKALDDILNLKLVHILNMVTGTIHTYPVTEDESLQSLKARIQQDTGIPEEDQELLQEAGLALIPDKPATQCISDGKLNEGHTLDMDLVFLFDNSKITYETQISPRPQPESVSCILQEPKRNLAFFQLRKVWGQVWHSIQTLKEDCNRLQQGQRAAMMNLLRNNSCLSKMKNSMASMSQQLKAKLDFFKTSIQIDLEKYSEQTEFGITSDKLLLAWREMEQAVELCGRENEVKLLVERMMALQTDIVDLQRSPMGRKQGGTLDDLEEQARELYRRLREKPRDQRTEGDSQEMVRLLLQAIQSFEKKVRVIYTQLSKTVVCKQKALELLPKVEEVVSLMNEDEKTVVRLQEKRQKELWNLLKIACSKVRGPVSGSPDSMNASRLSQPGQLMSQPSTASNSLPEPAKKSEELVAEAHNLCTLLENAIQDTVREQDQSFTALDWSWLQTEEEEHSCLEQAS

[16] = biological target: T1, Glycogen synthase kinase-3 beta; experiment: Inhibition of GSK3beta (unknown origin) in presence of 10 uM ATP incubated for 1 hr by Z'Lyte assay
Target sequence in this assay (P49841 whole entry): as the sequence (P49841 whole entry, looked up) above

[17] = Antiproliferative activity against human ANGM-CSS cells assessed as inhibition of cell growth after 144 hrs by WST1 assay; format: functional
[18] = biological target: Inhibitor of nuclear factor kappa-B kinase subunit alpha (Homo sapiens) (UniProt O15111); experiment: Inhibition of IKKalpha (unknown origin) at 1 uM by selectscreen kinase profiling assay in presence of ATP
Sequence of Inhibitor of nuclear factor kappa-B kinase subunit alpha (Homo sapiens) (O15111 whole entry): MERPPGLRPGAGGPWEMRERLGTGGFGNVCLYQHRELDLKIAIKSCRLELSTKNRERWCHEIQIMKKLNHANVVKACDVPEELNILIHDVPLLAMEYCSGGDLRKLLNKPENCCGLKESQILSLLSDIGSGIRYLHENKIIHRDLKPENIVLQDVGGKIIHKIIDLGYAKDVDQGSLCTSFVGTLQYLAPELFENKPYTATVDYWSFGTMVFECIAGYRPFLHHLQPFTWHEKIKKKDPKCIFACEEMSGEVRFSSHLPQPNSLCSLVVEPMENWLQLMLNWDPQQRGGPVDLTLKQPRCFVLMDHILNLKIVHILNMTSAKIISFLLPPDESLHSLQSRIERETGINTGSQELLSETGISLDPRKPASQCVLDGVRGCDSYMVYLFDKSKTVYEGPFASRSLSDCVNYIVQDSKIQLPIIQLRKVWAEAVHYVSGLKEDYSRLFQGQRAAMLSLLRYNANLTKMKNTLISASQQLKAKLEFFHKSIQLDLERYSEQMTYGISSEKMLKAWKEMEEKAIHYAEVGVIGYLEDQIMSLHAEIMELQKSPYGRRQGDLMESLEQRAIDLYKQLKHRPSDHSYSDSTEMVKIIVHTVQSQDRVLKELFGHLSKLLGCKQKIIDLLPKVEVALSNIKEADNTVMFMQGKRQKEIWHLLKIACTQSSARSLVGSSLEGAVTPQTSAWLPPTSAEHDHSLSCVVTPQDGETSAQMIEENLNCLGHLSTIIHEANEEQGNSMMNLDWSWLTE

[19] = biological target: Tyrosine-protein kinase ITK/TSK (Homo sapiens) (UniProt Q08881); experiment: Inhibition of ITK (unknown origin) at 1 uM by selectscreen kinase profiling assay in presence of ATP
[20] = biological target: RAC-alpha serine/threonine-protein kinase (Homo sapiens) (UniProt P31749); experiment: Inhibition of recombinant Akt1 (unknown origin) incubated for 1 hr by Z'Lyte assay
Sequence of RAC-alpha serine/threonine-protein kinase (Homo sapiens) (P31749 whole entry): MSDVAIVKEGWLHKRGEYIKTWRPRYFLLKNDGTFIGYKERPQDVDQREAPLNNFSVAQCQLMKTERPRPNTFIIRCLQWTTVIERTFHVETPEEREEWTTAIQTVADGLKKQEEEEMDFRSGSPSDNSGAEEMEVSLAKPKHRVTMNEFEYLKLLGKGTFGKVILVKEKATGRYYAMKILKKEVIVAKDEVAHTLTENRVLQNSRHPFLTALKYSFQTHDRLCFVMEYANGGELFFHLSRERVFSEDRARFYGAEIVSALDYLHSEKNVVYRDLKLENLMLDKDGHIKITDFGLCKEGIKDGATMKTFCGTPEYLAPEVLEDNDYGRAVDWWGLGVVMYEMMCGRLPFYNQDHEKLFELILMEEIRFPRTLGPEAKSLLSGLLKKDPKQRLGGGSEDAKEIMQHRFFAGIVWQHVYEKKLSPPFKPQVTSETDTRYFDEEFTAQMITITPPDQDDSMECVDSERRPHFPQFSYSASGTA

[21] = biological target: CDK7/Cyclin H/MNAT1 (Homo sapiens) (UniProt P51946+P50613+P51948); experiment: Inhibition of CDK7/cyclin H/MNAT1 (unknown origin) at 1 uM by selectscreen kinase profiling assay in presence of ATP; format: protein-complex assay
[22] = Antiproliferative activity against human U118MG cells assessed as inhibition of cell growth after 96 hrs by WST1 assay; format: functional; details: U-118-MG
[23] = Induction of apoptosis in human GSC derived from ANGM-CSS cells assessed as early apoptotic cells at 1 uM after 7 days by annexin V-FITC/7-AAD dual staining based cell analysis (reference value: 3.29%); format: functional
[24] = biological target: Mitogen-activated protein kinase 1 (Homo sapiens) (UniProt P28482); experiment: Inhibition of ERK2 (unknown origin) at 1 uM by selectscreen kinase profiling assay in presence of ATP
Sequence of Mitogen-activated protein kinase 1 (Homo sapiens) (P28482 whole entry): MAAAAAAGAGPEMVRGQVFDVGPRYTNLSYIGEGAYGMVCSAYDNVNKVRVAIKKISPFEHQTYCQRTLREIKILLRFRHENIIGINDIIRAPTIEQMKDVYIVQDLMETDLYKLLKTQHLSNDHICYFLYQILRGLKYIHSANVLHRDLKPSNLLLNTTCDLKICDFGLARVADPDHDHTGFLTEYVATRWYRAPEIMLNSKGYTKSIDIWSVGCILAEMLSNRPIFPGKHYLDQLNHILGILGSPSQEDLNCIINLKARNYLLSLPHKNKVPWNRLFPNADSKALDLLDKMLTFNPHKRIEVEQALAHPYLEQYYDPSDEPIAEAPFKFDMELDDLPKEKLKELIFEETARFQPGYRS

ANGM-CSS [25] = experiment: Reduction of neurosphere formation in human GSC derived from ANGM-CSS cells assessed as decrease in number and diameter of newly generated neurospheres at 1 uM after 9 days by microscopic analysis; format: functional, cell-based
[26] = biological target: Serine/threonine-protein kinase MRCK alpha (Homo sapiens) (UniProt Q5VT25); experiment: Inhibition of MRCKalpha (unknown origin) at 1 uM by selectscreen kinase profiling assay in presence of ATP
[27] = biological target: Serine/threonine-protein kinase B-raf (Homo sapiens) (UniProt P15056); experiment: Inhibition of BRAF (unknown origin) at 1 uM by selectscreen kinase profiling assay in presence of ATP
[28] = biological target: RAC-beta serine/threonine-protein kinase (Homo sapiens) (UniProt P31751); experiment: Inhibition of AKT2 (unknown origin) at 1 uM by selectscreen kinase profiling assay in presence of ATP
Sequence of RAC-beta serine/threonine-protein kinase (Homo sapiens) (P31751 whole entry, looked up): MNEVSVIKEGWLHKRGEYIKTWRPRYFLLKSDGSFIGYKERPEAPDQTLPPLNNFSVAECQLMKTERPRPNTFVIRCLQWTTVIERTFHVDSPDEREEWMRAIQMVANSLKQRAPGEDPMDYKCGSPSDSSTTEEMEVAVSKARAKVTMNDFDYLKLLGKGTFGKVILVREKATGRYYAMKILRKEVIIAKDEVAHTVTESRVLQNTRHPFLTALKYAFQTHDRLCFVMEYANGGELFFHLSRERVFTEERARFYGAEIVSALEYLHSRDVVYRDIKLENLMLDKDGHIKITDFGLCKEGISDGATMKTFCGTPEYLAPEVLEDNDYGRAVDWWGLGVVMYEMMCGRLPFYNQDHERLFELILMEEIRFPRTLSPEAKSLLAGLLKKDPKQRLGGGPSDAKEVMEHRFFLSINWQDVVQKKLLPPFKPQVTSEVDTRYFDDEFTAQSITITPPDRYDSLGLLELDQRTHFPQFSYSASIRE

COc1cc2c(cc1OC)CN(CC(=O)Nc1ccc3c(c1)/C(=C/c1cnc[nH]1)C(=O)N3)CC2
growth inhibition (GI) (U-118-MG): Dose-dependent effect | IC50 [1]: 0.884 µM | inhibition [2]: 5% | inhibition [3]: 1% | Activity (ANGM-CSS [4]): Active | inhibition [5]: 70% | Activity [6]: 1% | Activity [7]: 1.74% | Activity [8]: 11.87% | inhibition [9]: 5% | inhibition [10]: -4% | Activity [11]: 79.63% | inhibition [12]: -2% | GI50 [13]: 12.9 µM | inhibition [14]: 3% | inhibition [15]: 6% | IC50 [16]: 0.272 µM | GI50 [17]: 3.98 µM | inhibition [18]: 26% | inhibition [19]: -2% | inhibition [20]: inactive | inhibition [21]: -8% | GI50 [22]: 29.9 µM | Activity [23]: 12.65% | inhibition [24]: 26% | Activity (ANGM-CSS [25]): Active | inhibition [26]: -8% | inhibition [27]: 28% | inhibition [28]: 2%
